ChEMBL document CHEMBL4325853, “Design, synthesis and antibacterial evaluation of 2,4-disubstituted-6-thiophenyl-pyrimidines” (Eur J Med Chem, 2019)
Values after ≈ are worked out from the molar mass of the structure shown. Active and inactive are the calls of the source. No cut-off for these calls is given here.

Columns and labels:
[1] = Selectivity index, ratio of HC50 for human erythrocytes to MIC for methicillin-resistant Staphylococcus aureus ATCC BAA41; format: toxicity; conditions: read-out: Selectivity Index
[2] = system: Staphylococcus aureus; assay: Potency index, ratio of methicillin MIC to test compound MIC for methicillin-resistant Staphylococcus aureus ATCC 43300; format: functional
[3] = system: Staphylococcus aureus; assay: Antibacterial activity against methicillin-resistant Staphylococcus aureus isolate 7449 after 18 hrs by broth microdilution method; format: functional; conditions: isolate 7449, 18 h
[4] = system: Staphylococcus aureus; assay: Antibacterial activity against methicillin-resistant Staphylococcus aureus isolate 3096 after 18 hrs by broth microdilution method; format: functional; conditions: isolate 3096, 18 h
[5] = system: Staphylococcus aureus; assay: Antibacterial activity against methicillin-resistant Staphylococcus aureus isolate 7960 after 18 hrs by broth microdilution method; format: functional; conditions: isolate 7960, 18 h
[6] = system: Enterococcus faecium; assay: Antibacterial activity against Enterococcus faecium ATCC 49624 after 18 hrs by broth microdilution method; format: functional; conditions: ATCC 49624, 18 h
[7] = system: Staphylococcus aureus; assay: Antibacterial activity against methicillin-resistant Staphylococcus aureus isolate 8162 after 18 hrs by broth microdilution method; format: functional; conditions: isolate 8162, 18 h
[8] = system: Staphylococcus aureus; assay: Bactericidal activity against methicillin-resistant Staphylococcus aureus ATCC 43300 after 18 hrs by broth microdilution method; format: functional; conditions: ATCC 43300, 18 h
[9] = system: Staphylococcus aureus; assay: Antibacterial activity against methicillin-resistant Staphylococcus aureus isolate 3170 after 18 hrs by broth microdilution method; format: functional; conditions: isolate 3170, 18 h
[10] = system: Staphylococcus aureus; assay: Antibacterial activity against methicillin-resistant Staphylococcus aureus isolate 1428 after 18 hrs by broth microdilution method; format: functional; conditions: isolate 1428, 18 h
[11] = system: Staphylococcus aureus; assay: Antibacterial activity against methicillin-resistant Staphylococcus aureus isolate 7664 after 18 hrs by broth microdilution method; format: functional; conditions: isolate 7664, 18 h
[12] = system: Staphylococcus aureus; assay: Antibacterial activity against methicillin-resistant Staphylococcus aureus isolate 5056 after 18 hrs by broth microdilution method; format: functional; conditions: isolate 5056, 18 h
[13] = system: Staphylococcus aureus; assay: Antibacterial activity against methicillin-resistant Staphylococcus aureus isolate 7864 after 18 hrs by broth microdilution method; format: functional; conditions: isolate 7864, 18 h
[14] = system: Staphylococcus aureus; assay: Antibacterial activity against methicillin-resistant Staphylococcus aureus ATCC 33592 after 18 hrs by broth microdilution method; format: functional; conditions: ATCC 33592, 18 h
[15] = system: Staphylococcus aureus; assay: Potency index, ratio of methicillin MIC to test compound MIC for methicillin-resistant Staphylococcus aureus ATCC BAA41; format: functional
[16] = system: Staphylococcus aureus; assay: Antibacterial activity against methicillin-resistant Staphylococcus aureus isolate 2158 after 18 hrs by broth microdilution method; format: functional; conditions: isolate 2158, 18 h
[17] = system: Staphylococcus aureus; assay: Antibacterial activity against methicillin-resistant Staphylococcus aureus isolate 6334 after 18 hrs by broth microdilution method; format: functional; conditions: isolate 6334, 18 h
[18] = system: Enterococcus faecalis; assay: Potency index, ratio of berberine MIC to test compound MIC for Enterococcus faecalis ATCC 29212; format: functional
[19] = system: Staphylococcus aureus; assay: Antibacterial activity against methicillin-resistant Staphylococcus aureus ATCC 33591 after 18 hrs by broth microdilution method; format: functional; conditions: ATCC 33591, 18 h
[20] = system: Staphylococcus aureus; assay: Ratio of MIC for Staphylococcus aureus ATCC 29213 after and before 11 to 21 serial passages; format: functional
[21] = system: Staphylococcus aureus; assay: Potency index, ratio of methicillin MIC to test compound MIC for methicillin-resistant Staphylococcus aureus ATCC 33592; format: functional
[22] = system: Bacillus subtilis; assay: Antibacterial activity against Bacillus subtilis 168 after 18 hrs by broth microdilution method; format: functional; conditions: subsp. subtilis str. 168, 18 h
[23] = system: Staphylococcus aureus; assay: Ratio of MBC to MIC for methicillin-resistant Staphylococcus aureus ATCC 43300; format: functional
[24] = system: Staphylococcus aureus; assay: Potency index, ratio of methicillin MIC to test compound MIC for methicillin-resistant Staphylococcus aureus ATCC BAA1720; format: functional
[25] = system: Staphylococcus aureus; assay: Antibacterial activity against Staphylococcus aureus ATCC 29213 after 10 passages by broth microdilution method; format: functional, organism-based
[26] = system: Staphylococcus aureus; assay: Antibacterial activity against methicillin-resistant Staphylococcus aureus isolate 7972 after 18 hrs by broth microdilution method; format: functional; conditions: isolate 7972, 18 h
[27] = system: Staphylococcus aureus; assay: Antibacterial activity against methicillin-resistant Staphylococcus aureus isolate 7717 after 18 hrs by broth microdilution method; format: functional; conditions: isolate 7717, 18 h
[28] = Hemolytic activity against human erythrocytes measured after 1 hr; format: ADME, cell-based, Erythrocyte
[29] = system: Staphylococcus aureus; assay: Antibacterial activity against methicillin-resistant Staphylococcus aureus isolate 4955 after 18 hrs by broth microdilution method; format: functional; conditions: isolate 4955, 18 h
[30] = system: Staphylococcus epidermidis; assay: Antibacterial activity against Staphylococcus epidermidis ATCC 12228 after 18 hrs by broth microdilution method; format: functional; conditions: ATCC 12228, 18 h
[31] = system: Staphylococcus aureus; assay: Antibacterial activity against methicillin-resistant Staphylococcus aureus isolate 1708 after 18 hrs by broth microdilution method; format: functional; conditions: isolate 1708, 18 h
[32] = system: Staphylococcus aureus; assay: Antibacterial activity against methicillin-resistant Staphylococcus aureus isolate 7917 after 18 hrs by broth microdilution method; format: functional; conditions: isolate 7917, 18 h
[33] = system: Staphylococcus aureus; assay: Antibacterial activity against methicillin-resistant Staphylococcus aureus isolate 7587 after 18 hrs by broth microdilution method; format: functional; conditions: isolate 7587, 18 h
[34] = system: Staphylococcus aureus; assay: Antibacterial activity against methicillin-resistant Staphylococcus aureus isolate 4548 after 18 hrs by broth microdilution method; format: functional; conditions: isolate 4548, 18 h
[35] = system: Staphylococcus aureus; assay: Ratio of MBC to MIC for methicillin-resistant Staphylococcus aureus ATCC BAA41; format: functional
[36] = system: Staphylococcus aureus; assay: Antibacterial activity against methicillin-resistant Staphylococcus aureus isolate 7682 after 18 hrs by broth microdilution method; format: functional; conditions: isolate 7682, 18 h
[37] = Selectivity index, ratio of HC50 for human erythrocytes to MIC for methicillin-resistant Staphylococcus aureus ATCC BAA1720; format: toxicity; conditions: read-out: Selectivity Index
[38] = system: Enterococcus faecalis; assay: Antibacterial activity against vancomycin-resistant Enterococcus faecalis ATCC 700221 after 18 hrs by broth microdilution method; format: functional; conditions: ATCC 700221, 18 h
[39] = system: Staphylococcus aureus; assay: Antibacterial activity against methicillin-resistant Staphylococcus aureus isolate 7947 after 18 hrs by broth microdilution method; format: functional; conditions: isolate 7947, 18 h
[40] = system: Staphylococcus aureus; assay: Antibacterial activity against methicillin-resistant Staphylococcus aureus isolate 2671 after 18 hrs by broth microdilution method; format: functional; conditions: isolate 2671, 18 h
[41] = system: Staphylococcus aureus; assay: Antibacterial activity against methicillin-resistant Staphylococcus aureus ATCC 43300 after 18 hrs by broth microdilution method; format: functional; conditions: ATCC 43300, 18 h
[42] = system: Staphylococcus aureus; assay: Bactericidal activity against methicillin-resistant Staphylococcus aureus ATCC BAA41 after 18 hrs by broth microdilution method; format: functional; conditions: ATCC BAA41, 18 h
[43] = system: Staphylococcus aureus; assay: Antibacterial activity against methicillin-resistant Staphylococcus aureus isolate 4127 after 18 hrs by broth microdilution method; format: functional; conditions: isolate 4127, 18 h

**Q.** Which results are given for `CC(C)(C)c1ccc(CN2CCCN(CCc3cc(-c4cccs4)nc(-c4ccncc4)n3)CC2)cc1`?
**A.** selectivity ratio [1]: > 32; Ratio [2]: >100; MIC90 [3]: 2 µg/mL (≈ 3.91 µM); MIC90 [4]: 2 µg/mL (≈ 3.91 µM); MIC90 [5]: 2 µg/mL (≈ 3.91 µM); MIC90 [6]: 4 µg/mL (≈ 7.82 µM); MIC90 [7]: 2 µg/mL (≈ 3.91 µM); MBC [8]: 4 µg/mL (≈ 7.82 µM); MIC90 [9]: 2 µg/mL (≈ 3.91 µM); MIC90 [10]: 2 µg/mL (≈ 3.91 µM); MIC90 [11]: 2 µg/mL (≈ 3.91 µM); MIC90 [12]: 2 µg/mL (≈ 3.91 µM); MIC90 [13]: 2 µg/mL (≈ 3.91 µM); MIC90 [14]: 2 µg/mL (≈ 3.91 µM); Ratio [15]: >100; MIC90 [16]: 2 µg/mL (≈ 3.91 µM); MIC90 [17]: 2 µg/mL (≈ 3.91 µM); Ratio [18]: 50 - 100; MIC90 [19]: 2 µg/mL (≈ 3.91 µM); Activity [20]: Active; Ratio [21]: >100; MIC90 [22]: 2 µg/mL (≈ 3.91 µM); Ratio [23]: 2; Ratio [24]: >100; Activity [25]: Active; MIC90 [26]: 2 µg/mL (≈ 3.91 µM); MIC90 [27]: 2 µg/mL (≈ 3.91 µM); HC50 at 1 h [28]: > 64 µg/mL; MIC90 [29]: 2 µg/mL (≈ 3.91 µM); MIC90 [30]: 2 µg/mL (≈ 3.91 µM); MIC90 [31]: 4 µg/mL (≈ 7.82 µM); MIC90 [32]: 2 µg/mL (≈ 3.91 µM); MIC90 [33]: 2 µg/mL (≈ 3.91 µM); MIC90 [34]: 2 µg/mL (≈ 3.91 µM); Ratio [35]: 1; MIC90 [36]: 4 µg/mL (≈ 7.82 µM); selectivity ratio [37]: > 32; MIC90 [38]: 4 µg/mL (≈ 7.82 µM); MIC90 [39]: 2 µg/mL (≈ 3.91 µM); MIC90 [40]: 2 µg/mL (≈ 3.91 µM); MIC90 [41]: 2 µg/mL (≈ 3.91 µM); MBC [42]: 2 µg/mL (≈ 3.91 µM); MIC90 [43]: 2 µg/mL (≈ 3.91 µM)
